# Test results published in patent US10377743B2, “Inhibitors of RAS and methods of use thereof” (Araxes Pharma LLC, priority 2016, dated 2019).
# Molecular target: T1, KRAS G12C 1-169, his-tagged protein, GDP-loaded (Homo sapiens, UniProt P01116, G12C)
# T1 construct: KRAS G12C 1-169, his-tagged protein, GDP-loaded
# Assay: Biochemical assay: covalent binding (modification %) to KRAS G12C by mass spectrometry
# Details: 2 hour incubation period, 8 μM compound (compounds 21-92)
# Protocol: Test compounds were prepared as 10 mM stock solutions in DMSO (Fisher cat# BP-231-100). KRAS G12C 1-169, his-tagged protein, GDP-loaded was diluted to 2 μM or 0.5 μM in buffer (20 mM Hepes, 150 mM NaCl, 1 mM MgCl2). Compounds were tested for activity as follows:
# Compounds were diluted to 50× final test concentration in DMSO in 96-well storage plates. Compound stock solutions were vortexed before use and observed carefully for any sign of precipitation. Dilutions were as follow: • For 100 μM final compound concentration, compounds were diluted to 5000 μM (5 μL 10 mM compound stock+5 μL DMSO and mixed well by pipetting. • For 30 μM final compound concentration, compounds were diluted to 1500 μM (3 μL 10 mM compound stock+17 μL DMSO) and mixed well by pipetting. • For 10 μM final compound concentration, compounds were diluted to 500 μM (2 μL 10 mM compound stock+38 μL DMSO) and mixed well by pipetting. 49 μL of the stock protein solution was added to each well of a 96-well PCR plate (Fisher cat#1423027). 1 μl of the diluted 50× compounds were added to appropriate wells in the PCR plate using 12-channel pipettor. Reactions were mixed carefully and thoroughly by pipetting up/down with a 200 μL multi-channel pipettor. The plate was sealed well with aluminum plate seal, and stored in drawer at room temperature for 10 minutes, 30 minutes, 2 hours or 24 hours. 5 μL of 2% formic acid (Fisher cat# A117) in de-ionized H2O was then added to each well followed by mixing with a pipette. The plate was then resealed with aluminum seal and stored on dry ice until analyzed as described below.
# The above described assays were analyzed by mass spectrometry according to one of the following two procedures:
# The MS instrument is set to positive polarity, 2 GHz resolution, and low mass (1700) mode and allowed to equilibrate for 30 minutes. The instrument is then calibrated, switched to acquisition mode and the appropriate method loaded.
# After another 30 minute equilibration time, a blank batch (i.e., buffer) is run to ensure equipment is operating properly. The samples are thawed at 37° C. for 10 minutes, briefly centrifuged, and transfer to the bench top. Wells A1 and H12 are spiked with 1 μL 500 μM internal standard peptide, and the plates centrifuged at 2000×g for 5 minutes. The method is then run and masses of each individual well recorded.
# The masses (for which integration data is desired) for each well are pasted into the platemap and exported from the analysis. Masses for the internal standards are exported as well. The data at 50 ppm is extracted for the +19 charge state, and identity of well A1 is assigned using the internal standard spike and integrated. Peak data is exported as a TOF list and the above steps are repeated individually, for the +20, 21, 22, 23, 24, and 25 charge states.
# The masses and peak intensities of KRAS G12C protein species were measured using a Dionex RSLCnano system (Thermo Scientific) connected to a Q Exactive Plus mass spectrometer (Thermo Scientific).
# […] of sample was each loaded onto a Aeris™ 3.6 μm WIDEPORE C4 200 Å, LC Column 50×2.1 mm column maintained at 40° C. at a flow rate of 600 μL/min with 20% Solvent A (0.1% formic acid in H2O) and 80% Solvent B (0.1% formic acid in acetonitrile). The liquid chromatography conditions were 20% solvent B for 1 minute, 20% to 60% solvent B for 1.5 minutes, 60% to 90% solvent for 0.5 minute, 90% solvent B for 0.2 minute, 90% to 20% solvent B for 0.2 minute, and then equilibrated for 1.6 minute before the following sample injection. The flow rate was maintained at 600 μL/min throughout the sample analysis.
# The mass spectrometer was operated in profile mode at a resolution of 17500, 5 microscans, using 50 msec max injection time and an AGC target of 1×10^6, and a full mass range from 800-1850 m/z was recorded. The HCD trapping gas was optimized for maximum sensitivity for intact proteins. […]
row,SMILES,Binding %
1,"C=CC(=O)N1CC(N2Cc3c(C(N)=O)cc(-c4c(O)cccc4F)cc3C2=O)C1 [Compound 83, 2-(1-acryloylazetidin-3-yl)-6-(2-fluoro-6-hydroxyphenyl)-1-oxoisoindoline-4-carboxamide]",+ (+ indicates binding activity up to 10%)
2,"C=CC(=O)N1CC(N2Cc3cc(F)c(-c4cc(O)ccc4Cl)cc3C2=O)C1 [Compound 21, 2-(1-acryloylazetidin-3-yl)-6-(2-chloro-5-hydroxyphenyl)-5-fluoroisoindolin-1-one]",++ (++ indicates binding activity from 10 to 50%)
3,"C=CC(=O)N1CC(N2Cc3ccc(N4CCC(O)C4)cc3C2=O)C1 (centres unmarked) [Compound 59, 2-(1-acryloylazetidin-3-yl)-6-(3-hydroxypyrrolidin-1-yl)isoindolin-1-one]",+ (+ indicates binding activity up to 10%)
4,"C=CC(=O)N1CC(N2Cc3ccc(-c4c(C)ccc5[nH]ncc45)cc3C2)C1 [Compound 56, 1-(3-(5-(5-methyl-1H-indazol-4-yl)isoindolin-2-yl)azetidin-1-yl)prop-2-en-1-one]",+ (+ indicates binding activity up to 10%)
5,"C=CC(=O)N1CC(N2Cc3ccc(-c4cc(O)cc(Cl)c4)cc3C2=O)C1 [Compound 49, 2-(1-acryloylazetidin-3-yl)-6-(3-chloro-5-hydroxyphenyl)isoindolin-1-one]",++ (++ indicates binding activity from 10 to 50%)
6,"C=CC(=O)N1CC(N2Cc3ccc(-c4cccc(O)n4)cc3C2=O)C1 [Compound 54, 2-(1-acryloylazetidin-3-yl)-6-(6-hydroxypyridin-2-yl)isoindolin-1-one]",+ (+ indicates binding activity up to 10%)
7,"C=CC(=O)N1CC(N2Cc3ccc(NC4CCCN(C(C)=O)C4)cc3C2=O)C1 (centres unmarked) [Compound 71, 6-((1-acetylpiperidin-3-yl)amino)-2-(1-acryloylazetidin-3-yl)isoindolin-1-one]",+ (+ indicates binding activity up to 10%)
8,"C=CC(=O)N1CC(N2Cc3ccc(-c4cc(O)cc5ccccc45)c(F)c3C2=O)C1 [Compound 67, 2-(1-acryloylazetidin-3-yl)-7-fluoro-6-(3-hydroxynaphthalen-1-yl)isoindolin-1-one]",+++ (+++ indicates binding activity greater than 50%)
9,"C=CC(=O)N1CC(N2C(=O)c3ccc(-c4cc(O)cc5ccccc45)cc3C2=O)C1 [Compound 25, 2-(1-acryloylazetidin-3-yl)-5-(3-hydroxynaphthalen-1-yl)isoindoline-1,3-dione]",++ (++ indicates binding activity from 10 to 50%)
10,"C=CC(=O)N1CC(N2Cc3ccc(-c4ccccc4NC)cc3C2=O)C1 [Compound 60, 2-(1-acryloylazetidin-3-yl)-6-(2-(methylamino)phenyl)isoindolin-1-one]",+ (+ indicates binding activity up to 10%)
11,"C=CC(=O)N1CC(N2Cc3c(C(N)=O)cc(-c4cc(O)cc5ccccc45)cc3C2=O)C1 [Compound 23, 2-(1-acryloylazetidin-3-yl)-6-(3-hydroxynaphthalen-1-yl)-1-oxoisoindoline-4-carboxamide]",+++ (+++ indicates binding activity greater than 50%)
12,"C=CC(=O)N1CC(N2Cc3c(F)cc(-c4cc(O)ccc4Cl)cc3C2=O)C1 [Compound 26, 2-(1-acryloylazetidin-3-yl)-6-(2-chloro-5-hydroxyphenyl)-4-fluoroisoindolin-1-one]",++ (++ indicates binding activity from 10 to 50%)
13,"C=CC(=O)N1CC(N2Cc3c(C#N)cc(-c4cc(O)cc5ccccc45)cc3C2=O)C1 [Compound 24, 2-(1-acryloylazetidin-3-yl)-6-(3-hydroxynaphthalen-1-yl)-1-oxoisoindoline-4-carbonitrile]",+++ (+++ indicates binding activity greater than 50%)
14,"C=CC(=O)NCCN1Cc2ccc(-c3c(C)ccc4[nH]ncc34)cc2C1=O [Compound 22, N-(2-(6-(5-methyl-1H-indazol-4-yl)-1-oxoisoindolin-2-yl)ethyl)acrylamide]",+ (+ indicates binding activity up to 10%)
15,"C=CC(=O)N1CC(N2Cc3ccc(-c4ccccc4C#N)cc3C2=O)C1 [Compound 61, 2-(2-(1-acryloylazetidin-3-yl)-3-oxoisoindolin-5-yl)benzonitrile]",+ (+ indicates binding activity up to 10%)
16,"C=CC(=O)N1CC(N2Cc3cc(Cl)c(-c4c(C)ccc5[nH]ncc45)cc3C2=O)C1 [Compound 74, 2-(1-acryloylazetidin-3-yl)-5-chloro-6-(5-methyl-1H-indazol-4-yl)isoindolin-1-one]",++ (++ indicates binding activity from 10 to 50%)
17,"C=CC(=O)N1CC(N2CCc3ccc(-c4cc(O)cc5ccccc45)cc3CC2)C1 [Compound 31, 1-(3-(7-(3-hydroxynaphthalen-1-yl)-4,5-dihydro-1H-benzo[d]azepin-3(2H)-yl)azetidin-1-yl)prop-2-en-1-one]",+ (+ indicates binding activity up to 10%)
18,"C=CC(=O)N1CC(N2Cc3c(C#N)cc(-c4c(C)ccc5[nH]ncc45)cc3C2=O)C1 [Compound 89, 2-(1-acryloylazetidin-3-yl)-6-(5-methyl-1H-indazol-4-yl)-1-oxoisoindoline-4-carbonitrile]",+ (+ indicates binding activity up to 10%)
19,"C=CC(=O)N1CC(N2Cc3ccc(NC4CCN(C(C)=O)C4)cc3C2=O)C1 (centres unmarked) [Compound 75, 6-((1-acetylpyrrolidin-3-yl)amino)-2-(1-acryloylazetidin-3-yl)isoindolin-1-one]",+ (+ indicates binding activity up to 10%)
20,"C=CC(=O)N1CC(N2Cc3ccc(-c4ccc(O)nc4)cc3C2=O)C1 [Compound 90, 2-(1-acryloylazetidin-3-yl)-6-(6-hydroxypyridin-3-yl)isoindolin-1-one]",+ (+ indicates binding activity up to 10%)
21,"C=CC(=O)N1CC(N2Cc3c(OC)cc(-c4c(C)ccc5[nH]ncc45)cc3C2=O)C1 [Compound 92, 2-(1-acryloylazetidin-3-yl)-4-methoxy-6-(5-methyl-1H-indazol-4-yl)isoindolin-1-one]",++ (++ indicates binding activity from 10 to 50%)

# Same assay, conditions: 2 hour incubation period, 10 μM compound (compounds 1-20)
row,SMILES,Binding %
1,"C=CC(=O)N1CC(N2Cc3c(Cl)cc(-c4cc(O)cc5ccccc45)cc3C2=O)C1 [Compound 12, 2-(1-acryloylazetidin-3-yl)-4-chloro-6-(3-hydroxynaphthalen-1-yl)isoindolin-1-one]",+++ (+++ indicates binding activity greater than 50%)
2,"C=CC(=O)N1CC(N2Cc3c(Cl)cc(-c4cc(O)ccc4Cl)cc3C2=O)C1 [Compound 13, 2-(1-acryloylazetidin-3-yl)-4-chloro-6-(2-chloro-5-hydroxyphenyl)isoindolin-1-one]",++ (++ indicates binding activity from 10 to 50%)
3,"C=CC(=O)N1CC(N2Cc3c(C)cc(-c4cc(O)ccc4Cl)cc3C2=O)C1 [Compound 15, 2-(1-acryloylazetidin-3-yl)-6-(2-chloro-5-hydroxyphenyl)-4-methylisoindolin-1-one]",++ (++ indicates binding activity from 10 to 50%)
4,"C=CC(=O)N1CCCC(N2Cc3ccc(-c4cc(O)cc5ccccc45)cc3C2=O)C1 (centres unmarked) [Compound 4, 2-(1-acryloylpiperidin-3-yl)-6-(3-hydroxynaphthalen-1-yl)isoindolin-1-one]",+ (+ indicates binding activity up to 10%)
5,"C=CC(=O)N1CC(N2Cc3ccc(-c4cc(O)ccc4C)cc3C2=O)C1 [Compound 11, 2-(1-acryloylazetidin-3-yl)-6-(5-hydroxy-2-methylphenyl)isoindolin-1-one]",++ (++ indicates binding activity from 10 to 50%)
